Data taken from ChEMBL document CHEMBL1201862, “PubChem BioAssay data set” (2004).
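These data come from cells grown in 96-well plates and exposed to compound for 48 hours at five concentrations. Abbreviation: GI50, concentration required for 50% inhibition of growth.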 Activity calls are given as the source filed them. No stated cut-off is given here; in the data, active = GI50 up to about 1.1 µM and inactive = higher.

Assays:
Assay in all cases: DTP human tumour cell line panel, 48 h
[1] = tested on: HCC 2998
[2] = tested on: SNB-75
[3] = tested on: SF-539
[4] = tested on: TK-10
[5] = tested on: Malme-3M
[6] = tested on: OVCAR-4
[7] = tested on: SK-OV-3
[8] = tested on: HCT-15
[9] = tested on: HL-60
[10] = tested on: U-251
[11] = tested on: 786-0
[12] = tested on: COLO 205
[13] = tested on: UACC-257
[14] = tested on: SN12C
[15] = tested on: LOX IMVI
[16] = tested on: SR

SMILES | GI50 [1] | GI50 [2] | GI50 [3] | GI50 [4] | GI50 [5] | GI50 [6] | GI50 [7] | GI50 [8] | GI50 [9] | GI50 [10] | GI50 [11] | GI50 [12] | GI50 [13] | GI50 [14] | GI50 [15] | GI50 [16]
O=C(O)CCCNS(=O)(=O)c1ccccc1 | > 100 µM (inactive) | > 100 µM (inactive) | > 100 µM (inactive) | > 100 µM (inactive) | > 100 µM (inactive) | > 100 µM (inactive) | > 100 µM (inactive) | > 100 µM | > 100 µM (inactive) | > 100 µM (inactive) | > 100 µM (inactive) | > 100 µM (inactive) | > 100 µM (inactive) | > 100 µM (inactive) | > 100 µM (inactive) | –
c1ccc(SC(CCCCOC2CCCCO2)Sc2ccccc2)cc1 (configuration not stated) | > 100 µM (inactive) | 49.8 µM (inactive) | > 100 µM (inactive) | > 100 µM (inactive) | > 100 µM (inactive) | 55.6 µM (inactive) | > 100 µM (inactive) | 91.2 µM | 20.4 µM (inactive) | > 100 µM (inactive) | > 100 µM (inactive) | 94.6 µM (inactive) | 63.8 µM (inactive) | > 100 µM (inactive) | 65.5 µM (inactive) | –
COC1OC2COC(c3ccccc3)OC2C(O)C1Br (configuration not stated) | > 100 µM (inactive) | – | > 100 µM (inactive) | > 100 µM (inactive) | > 100 µM (inactive) | > 100 µM (inactive) | – | > 100 µM | > 100 µM (inactive) | > 100 µM (inactive) | > 100 µM (inactive) | > 100 µM (inactive) | > 100 µM (inactive) | > 100 µM (inactive) | > 100 µM (inactive) | > 100 µM (inactive)
O=C1c2ccccc2C(=O)N1C/C=C/CO | > 100 µM (inactive) | > 100 µM (inactive) | > 100 µM (inactive) | > 100 µM (inactive) | > 100 µM (inactive) | > 100 µM (inactive) | > 100 µM (inactive) | > 100 µM | > 100 µM (inactive) | > 100 µM (inactive) | > 100 µM (inactive) | > 100 µM (inactive) | > 100 µM (inactive) | > 100 µM (inactive) | – | > 100 µM (inactive)
CC1=C(c2ccccc2)CON(c2ccccc2)C1 | 67.5 µM (inactive) | – | 40.6 µM (inactive) | – | 56.4 µM (inactive) | > 100 µM (inactive) | > 100 µM (inactive) | 28.4 µM | 26.6 µM (inactive) | 25.8 µM (inactive) | 36.8 µM (inactive) | 33.1 µM (inactive) | 40.8 µM (inactive) | 53.6 µM (inactive) | 30.8 µM (inactive) | 31.3 µM (inactive)
CC(=O)OC1COC(Nc2ccc(C(C)=O)cc2)C(OC(C)=O)C1OC(C)=O (configuration not stated) | > 100 µM (inactive) | > 100 µM (inactive) | > 100 µM (inactive) | > 100 µM (inactive) | > 100 µM (inactive) | > 100 µM (inactive) | > 100 µM (inactive) | > 100 µM | – | > 100 µM (inactive) | > 100 µM (inactive) | > 100 µM (inactive) | > 100 µM (inactive) | > 100 µM (inactive) | > 100 µM (inactive) | > 100 µM (inactive)
CCOC(=O)C1=C(OC(OCC)C(CC)[Se]c2ccccc2)CCCC1 (configuration not stated) | 13.4 µM (inactive) | 16.9 µM (inactive) | 17.8 µM (inactive) | > 100 µM (inactive) | 16.9 µM (inactive) | 14.5 µM (inactive) | > 100 µM (inactive) | 16.9 µM | 15.9 µM (inactive) | 12.6 µM (inactive) | 15.6 µM (inactive) | 34.7 µM (inactive) | 35 µM (inactive) | 14.6 µM (inactive) | 4.54 µM (inactive) | –
O=C1c2ccccc2C2C1N2C(=O)C(F)(F)F (configuration not stated) | – | > 100 µM (inactive) | > 100 µM (inactive) | > 100 µM (inactive) | > 100 µM (inactive) | > 100 µM (inactive) | > 100 µM (inactive) | > 100 µM | 24.7 µM (inactive) | > 100 µM (inactive) | > 100 µM (inactive) | > 100 µM (inactive) | > 100 µM (inactive) | > 100 µM (inactive) | 49 µM (inactive) | 26.9 µM (inactive)
C=C(C=O)CCCC(C)[C@@H]1CCC23CC12CCC1[C@@]2(C)CCC(OC(C)=O)C(C)(C)C2CC(OC2OC(COC(C)=O)C(O)C(O)C2O)[C@]13C (some centres not stated) | 7.53 µM (inactive) | 5.68 µM (inactive) | 5.7 µM (inactive) | 6.58 µM (inactive) | 2 µM (inactive) | 5.14 µM (inactive) | 6.15 µM (inactive) | 1.56 µM | 0.643 µM (active) | 2.72 µM (inactive) | 6.87 µM (inactive) | 7.82 µM (inactive) | 5.7 µM (inactive) | 1.58 µM (inactive) | 0.807 µM (active) | –
O=C1CC2Sc3ccccc3N=C2N1c1ccc(Cl)cc1Cl (configuration not stated) | > 100 µM (inactive) | 99.1 µM (inactive) | – | > 100 µM (inactive) | 64.7 µM (inactive) | > 100 µM (inactive) | – | – | 18.8 µM (inactive) | 32.2 µM (inactive) | 30.3 µM (inactive) | > 100 µM (inactive) | > 100 µM (inactive) | 39.9 µM (inactive) | 40.7 µM (inactive) | –
NCCCNC(=O)c1csc(NC(=O)c2csc(NC(=O)CCCN)n2)n1 | > 100 µM (inactive) | > 100 µM (inactive) | > 100 µM (inactive) | > 100 µM (inactive) | > 100 µM (inactive) | 18.7 µM (inactive) | > 100 µM (inactive) | > 100 µM | > 100 µM (inactive) | > 100 µM (inactive) | > 100 µM (inactive) | > 100 µM (inactive) | > 100 µM (inactive) | > 100 µM (inactive) | – | > 100 µM (inactive)
COc1ccc2c3c([nH]c2c1[N+](=O)[O-])C(C)N(Cc1ccc([N+](=O)[O-])cc1)CC3 (configuration not stated) | 17.2 µM (inactive) | – | > 100 µM (inactive) | 29.6 µM (inactive) | – | 2.16 µM (inactive) | – | 15.6 µM | 3.22 µM (inactive) | 15.7 µM (inactive) | > 100 µM (inactive) | 14 µM (inactive) | 12.9 µM (inactive) | 18.5 µM (inactive) | 4.74 µM (inactive) | 5.5 µM (inactive)
O=C(NC(=O)c1cn(CCN2CCN(C(=O)NCCCCCCNC(=O)N3CCN(CCn4cc(C(=O)NC(=O)OCc5ccccc5)c(=O)[nH]c4=O)CC3)CC2)c(=O)[nH]c1=O)OCc1ccccc1 | – | 60.8 µM (inactive) | > 100 µM (inactive) | > 100 µM (inactive) | > 100 µM (inactive) | > 100 µM (inactive) | > 100 µM (inactive) | > 100 µM | > 100 µM (inactive) | > 100 µM (inactive) | > 100 µM (inactive) | > 100 µM (inactive) | > 100 µM (inactive) | > 100 µM (inactive) | > 100 µM (inactive) | –
CN1N=C2c3ccccc3CC[C@H]2C1c1cccc(O)c1 (some centres not stated) | > 100 µM (inactive) | – | > 100 µM (inactive) | > 100 µM (inactive) | 0.463 µM (active) | 75.9 µM (inactive) | > 100 µM (inactive) | > 100 µM | > 100 µM (inactive) | > 100 µM (inactive) | > 100 µM (inactive) | > 100 µM (inactive) | > 100 µM (inactive) | > 100 µM (inactive) | > 100 µM (inactive) | > 100 µM (inactive)
C1=CC=C2NCCC/N=C3/C=CC=CC=C3NCCC/N=C\2C=C1 | > 100 µM (inactive) | > 100 µM (inactive) | > 100 µM (inactive) | > 100 µM (inactive) | – | > 100 µM (inactive) | > 100 µM (inactive) | > 100 µM | > 100 µM (inactive) | > 100 µM (inactive) | > 100 µM (inactive) | > 100 µM (inactive) | – | > 100 µM (inactive) | > 100 µM (inactive) | –
CC(=O)O/N=C/c1ncccc1OC(C)=O | – | > 100 µM (inactive) | > 100 µM (inactive) | > 100 µM (inactive) | > 100 µM (inactive) | > 100 µM (inactive) | > 100 µM (inactive) | > 100 µM | > 100 µM (inactive) | > 100 µM (inactive) | > 100 µM (inactive) | > 100 µM (inactive) | > 100 µM (inactive) | > 100 µM (inactive) | > 100 µM (inactive) | > 100 µM (inactive)
O=S(=O)(O)C(F)(F)C(F)(F)C(F)(F)C(F)(F)F | > 100 µM (inactive) | > 100 µM (inactive) | > 100 µM (inactive) | > 100 µM (inactive) | > 100 µM (inactive) | > 100 µM (inactive) | > 100 µM (inactive) | > 100 µM | > 100 µM (inactive) | > 100 µM (inactive) | > 100 µM (inactive) | > 100 µM (inactive) | > 100 µM (inactive) | > 100 µM (inactive) | > 100 µM (inactive) | –
CCOC(=O)CNC(=O)OCc1ccccc1 | > 100 µM (inactive) | > 100 µM (inactive) | > 100 µM (inactive) | > 100 µM (inactive) | > 100 µM (inactive) | – | > 100 µM (inactive) | > 100 µM | > 100 µM (inactive) | > 100 µM (inactive) | > 100 µM (inactive) | > 100 µM (inactive) | > 100 µM (inactive) | > 100 µM (inactive) | > 100 µM (inactive) | –
Cc1cc2c(=O)cc(-c3ccc(Cl)cc3Cl)oc2c(C(=O)O)c1C | – | > 100 µM (inactive) | > 100 µM (inactive) | > 100 µM (inactive) | > 100 µM (inactive) | > 100 µM (inactive) | > 100 µM (inactive) | > 100 µM | – | > 100 µM (inactive) | > 100 µM (inactive) | > 100 µM (inactive) | > 100 µM (inactive) | > 100 µM (inactive) | > 100 µM (inactive) | –
